# Test results published in ChEMBL document CHEMBL3885881, “DrugMatrix”.
# Species on record: Rattus norvegicus
# Assay: DrugMatrix - Regimen: Daily Repeat
# Assay type: toxicity, organism-based, Sprague-Dawley
# Set-up: regimen Daily Repeat, gender Male, age 6-8 weeks
# Details: in vivo, po, route oral GAVAGE, vehicle 100 % WATER; for BASOPHIL / EOSINOPHIL / ERYTHROCYTE COUNT / HEMATOCRIT / HEMOGLOBIN / LEUKOCYTE COUNT / LYMPHOCYTE / MEAN CORPUSCULAR HEMOGLOBIN / MEAN CORPUSCULAR HEMOGLOBIN CONCENTRATION / MONOCYTE / NEUTROPHIL / PLATELET COUNT: tissue Blood; for ALANINE AMINOTRANSFERASE / ALBUMIN / ALKALINE PHOSPHATASE / ASPARTATE AMINOTRANSFERASE / BLOOD UREA NITROGEN / CHLORIDE / CHOLESTEROL / CREATINE PHOSPHOKINASE / CREATININE / GLUCOSE / PHOSPHORUS / POTASSIUM / SODIUM / TOTAL BILIRUBIN / TOTAL PROTEIN: tissue Plasma
# [1] = 0 mg/kg, 72 h, dose level Control, time 3 day
# [2] = 0 mg/kg, 120 h, dose level Control, time 5 day
# [3] = 755 mg/kg, 72 h, dose level High, time 3 day
# [4] = 755 mg/kg, 120 h, dose level High, time 5 day
compound,measurement,setting,value
CCN(CC)CCNC(=O)c1ccc(N)cc1 [PROCAINAMIDE],BASOPHIL,[1],0%
same,EOSINOPHIL,[1],0.33%
same,ERYTHROCYTE COUNT,[1],5.88 x10E6/uL
same,HEMATOCRIT,[1],36.47%
same,HEMOGLOBIN,[1],14.2 G/DL
same,LEUKOCYTE COUNT,[1],9.28 x10E3/uL
same,LYMPHOCYTE,[1],82.33%
same,MEAN CORPUSCULAR HEMOGLOBIN,[1],24.2 pg
same,MEAN CORPUSCULAR HEMOGLOBIN CONCENTRATION,[1],38.97 G/DL
same,MONOCYTE,[1],2.33%
same,NEUTROPHIL,[1],15%
same,PLATELET COUNT,[1],1114 x10E3/uL
same,ALANINE AMINOTRANSFERASE,[1],41.17 u/L
same,ALBUMIN,[1],3.95 G/DL
same,ALKALINE PHOSPHATASE,[1],382.5 u/L
same,ASPARTATE AMINOTRANSFERASE,[1],67.33 u/L
same,BLOOD UREA NITROGEN,[1],15.5 mg/dL
same,CHLORIDE,[1],106.33 MEQ/L
same,CHOLESTEROL,[1],77.67 mg/dL
same,CREATINE PHOSPHOKINASE,[1],123.33 u/L
same,CREATININE,[1],0.62 mg/dL
same,GLUCOSE,[1],185.67 mg/dL
same,PHOSPHORUS,[1],10.2 mg/dL
same,POTASSIUM,[1],6.72 MEQ/L
same,SODIUM,[1],149.67 MEQ/L
same,TOTAL BILIRUBIN,[1],0.97 mg/dL
same,TOTAL PROTEIN,[1],6.58 G/DL
same,BASOPHIL,[2],0%
same,EOSINOPHIL,[2],0%
same,ERYTHROCYTE COUNT,[2],5.99 x10E6/uL
same,HEMATOCRIT,[2],36.88%
same,HEMOGLOBIN,[2],14.77 G/DL
same,LEUKOCYTE COUNT,[2],11.35 x10E3/uL
same,LYMPHOCYTE,[2],85.5%
same,MEAN CORPUSCULAR HEMOGLOBIN,[2],24.7 pg
same,MEAN CORPUSCULAR HEMOGLOBIN CONCENTRATION,[2],40.07 G/DL
same,MONOCYTE,[2],1.83%
same,NEUTROPHIL,[2],12.67%
same,PLATELET COUNT,[2],979.67 x10E3/uL
same,ALANINE AMINOTRANSFERASE,[2],36.5 u/L
same,ALBUMIN,[2],3.63 G/DL
same,ALKALINE PHOSPHATASE,[2],303.5 u/L
same,ASPARTATE AMINOTRANSFERASE,[2],61 u/L
same,BLOOD UREA NITROGEN,[2],16.5 mg/dL
same,CHLORIDE,[2],106.17 MEQ/L
same,CREATINE PHOSPHOKINASE,[2],154.83 u/L
same,CREATININE,[2],0.6 mg/dL
same,GLUCOSE,[2],201 mg/dL
same,PHOSPHORUS,[2],10.1 mg/dL
same,POTASSIUM,[2],6.85 MEQ/L
same,SODIUM,[2],148.17 MEQ/L
same,TOTAL BILIRUBIN,[2],0.58 mg/dL
same,TOTAL PROTEIN,[2],5.9 G/DL
same,BASOPHIL,[3],0%
same,EOSINOPHIL,[3],0%
same,ERYTHROCYTE COUNT,[3],5.39 x10E6/uL
same,HEMATOCRIT,[3],32.67%
same,HEMOGLOBIN,[3],13.03 G/DL
same,LEUKOCYTE COUNT,[3],10.2 x10E3/uL
same,LYMPHOCYTE,[3],85.67%
same,MEAN CORPUSCULAR HEMOGLOBIN,[3],24.17 pg
same,MEAN CORPUSCULAR HEMOGLOBIN CONCENTRATION,[3],39.9 G/DL
same,MONOCYTE,[3],1.33%
same,NEUTROPHIL,[3],13%
same,PLATELET COUNT,[3],1063.33 x10E3/uL
same,ALANINE AMINOTRANSFERASE,[3],43 u/L
same,ALBUMIN,[3],3.9 G/DL
same,ALKALINE PHOSPHATASE,[3],441.33 u/L
same,ASPARTATE AMINOTRANSFERASE,[3],61 u/L
same,BLOOD UREA NITROGEN,[3],16 mg/dL
same,CHLORIDE,[3],105.33 MEQ/L
same,CHOLESTEROL,[3],74.33 mg/dL
same,CREATINE PHOSPHOKINASE,[3],142.67 u/L
same,CREATININE,[3],0.57 mg/dL
same,GLUCOSE,[3],176.33 mg/dL
same,PHOSPHORUS,[3],11.97 mg/dL
same,POTASSIUM,[3],6.97 MEQ/L
same,SODIUM,[3],150.67 MEQ/L
same,TOTAL BILIRUBIN,[3],0.6 mg/dL
same,TOTAL PROTEIN,[3],6.5 G/DL
same,BASOPHIL,[4],0%
same,EOSINOPHIL,[4],0%
same,ERYTHROCYTE COUNT,[4],5.45 x10E6/uL
same,HEMATOCRIT,[4],33.47%
same,HEMOGLOBIN,[4],14.6 G/DL
same,LEUKOCYTE COUNT,[4],13.8 x10E3/uL
same,LYMPHOCYTE,[4],87.67%
same,MEAN CORPUSCULAR HEMOGLOBIN,[4],26.87 pg
same,MEAN CORPUSCULAR HEMOGLOBIN CONCENTRATION,[4],43.7 G/DL
same,MONOCYTE,[4],1.33%
same,NEUTROPHIL,[4],11%
same,PLATELET COUNT,[4],830.33 x10E3/uL
same,ALANINE AMINOTRANSFERASE,[4],40.67 u/L
same,ALBUMIN,[4],3.73 G/DL
same,ALKALINE PHOSPHATASE,[4],378.67 u/L
same,ASPARTATE AMINOTRANSFERASE,[4],63 u/L
same,BLOOD UREA NITROGEN,[4],14.33 mg/dL
same,CHLORIDE,[4],107.33 MEQ/L
same,CHOLESTEROL,[4],74 mg/dL
same,CREATINE PHOSPHOKINASE,[4],117.33 u/L
same,CREATININE,[4],0.67 mg/dL
same,GLUCOSE,[4],180 mg/dL
same,PHOSPHORUS,[4],10.5 mg/dL
same,POTASSIUM,[4],6.57 MEQ/L
same,SODIUM,[4],152.33 MEQ/L
same,TOTAL BILIRUBIN,[4],0.53 mg/dL
same,TOTAL PROTEIN,[4],6.03 G/DL
